According to publication PMC6946680, “Modulation of brain cation-Cl^− cotransport via the SPAK kinase inhibitor ZT-1a” (Nature Communications, 2020):
Values joined by “and” are separate entries in the source; they are usually repeats but may differ in a detail not shown here. Equal entries are not always repeated.

Columns and labels:
[1] = Immunoblot of KCC site 1 phosphorylation (KCC3 Thr991) in HEK-293 cells transfected with FLAG-KCC3; assay type: cell-based, human
[2] = biological target: human SPAK 452-547(C-term) with WNK peptide (RFQV) (Homo sapiens, UniProt Q9UEW8); test: Fluorescence polarization of SPAK–WNK peptide interaction; assay type: binding; conditions: SPAK FL, Fig S5b
NCC pThr46/50/55/60 = test: Pharmacodynamic study, NCC phosphorylation in kidney of naive mice; assay type: in vivo, mouse; conditions: Fig S8b (kidney); 50 mg/kg
Description: (§1) To define ZT-1a efficacy in naive mice in vivo, we examined phosphorylation of SPAK, NKCC1, and NCC in kidney, and phosphorylation of SPAK, NKCC1, and KCC3 in brain, after intraperitoneal (i.p.) administration of either ZT-1a (10, 30, 50, and 100 mg/kg) or Closantel (50 mg/kg as a reference). […]
(§2) 5. Pharmacodynamic (PD) study
(§3) Male C57BL/6j wild-type mice (6 weeks old, Charles River Laboratories Edinburgh UK) were treated with ZT-1a (in DMSO, Sigma) by subcutaneous injection at doses of 0, 3, 10, 30, 50 and 100 mg/kg. 50 mg/kg Closantel was administered as a comparative control. Vehicle control mice were treated with an equal volume of DMSO solution. One hour after administration, mice were sacrificed by cervical dislocation, and kidney and brain tissues were rapidly dissected and snap-frozen in liquid nitrogen. Age- […]
(§4) free conditions at the University of Dundee (UK) as described in our recent study1. Animal experiments and breeding were approved by the University of Dundee ethical committee and performed under a […]
(§5) Policy on the Care, Welfare and Treatment of Animals, and regulations set by the University of Dundee and the U.K. Home Office. […]
(§6) Brain and kidney tissues were collected at 60 min post injection, and proteins subjected to immunoblot were probed with antibodies specific for phosphorylated forms of SPAK,

NKCC1 pThr203/207/212 [3] = test: Pharmacodynamic study, NKCC1 phosphorylation in kidney of naive mice; assay type: in vivo, mouse; conditions: Fig S8b (kidney); 50 mg/kg
Description: as §1, §2, §3, §4, §5, §6

SPAK phosphorylation = test: Pharmacodynamic study, SPAK phosphorylation in kidney of naive mice; assay type: in vivo, mouse; conditions: Fig S8b (kidney); 50 mg/kg
Description: as §1, §2, §3, §4, §5, §6

NKCC1 pThr203/207/212 [4] = test: Pharmacodynamic study, NKCC1 phosphorylation in brain of naive mice; assay type: in vivo, mouse
Description: as §1, §2, §3, §4, §5, §6

[5] = test system: regional cerebral blood flow; test: Regional cerebral blood flow by laser speckle contrast imaging after tMCAO; assay type: in vivo, mouse; conditions: single mice
Description: Regional cerebral blood flow was measured using a two-dimensional laser speckle contrast analysis system (PeriCam PSI High Resolution with PIMSoft, Perimed)[65]. Isoflurane-anesthetized mice were head-fixed using stereotaxic equipment during imaging. The skin was retracted to expose the intact skull. Images were taken at 19 frames/second with averaging. Average signal intensity was taken from fixed-size (0.5-mm^2) regions of interest drawn over the parietal bone plate on the ipsi (IL)- and contralateral (CL) sides. Percent perfusion values were taken in comparison with the mean values of the pre-ischemic ipsilateral side. Five consecutive images at each time period per animal were averaged for analysis. […]
cerebral blood flow (rCBF) in ischemic mice. a and d Representative two-dimensional laser speckle contrast images of rCBF. Vehicle (DMSO), ZT-1a (A, 2.5 mg/kg), or Closantel (D, 1.25 mg/kg, i.p.) was administered i.p. at 3 hr and again at 8 hr post-reperfusion after MCAO. Pseudocolor scale bar indicates relative signal intensity. b and e No changes of rCBF were detected in the non-ischemic […]
contralateral (CL) hemispheres of vehicle-control or ZT-1a-treated (b) or Closantel-treated mice (e).
Data are mean ± SD, n = 3. c and f Similar reductions and recoveries of rCBF in the ischemic ipsilateral hemispheres (IL) were detected in the ZT-1a-treated (c) or Closantel-treated ischemic mice (f), and neither differed from vehicle-injected mice. Data are mean ± SEM, n = 3.

C57BL/6J mice = test: Kaplan-Meier survival of naive and ischemic stroke mice at 25 mg/kg; assay type: in vivo, mouse; conditions: for Days elapsed: Fig S12, single mice
Description: We compared the neuroprotective efficacy of Closantel with that of the pan-WNK-kinase inhibitor WNK463. […] Moreover, toxicity of Closantel and ZT-1a at 25 mg/kg in naive and ischemic stroke mice was reflected in Kaplan–Meier survival curves (Supplementary Fig. 12).
Supplemental Fig. 12 Kaplan-Meier survival curve of naïve and ischemic stroke mice treated with […]
Normal naïve C57BL/6J mice, or mice after tMCAO randomly received Closantel or ZT-1a treatment […]
was monitored for 0-7 days post-treatment. No mortality was detected in the naïve mice treated with Closantel or ZT-1a. However, all ischemic stroke mice treated with Closantel died within 2 days, with a […]
median survival of 1 day. […]
days). n = 3 per group (naïve+Closantel or naive+ZT-1a), n = 6 per group (tMCAO+vehicle or tMCAO+Closantel or tMCAO+ZT-1a), *p < 0.05, Log-rank test.

SPAK pSer373 = test: Immunoblot of SPAK/OSR1 p-Ser373/Ser325 in HEK-293 cells; assay type: cell-based, human; conditions: single replicates

In the case of `Cc1cc(C(C#N)c2ccc(Cl)cc2)c(Cl)cc1NC(=O)c1cc(I)cc(I)c1O` (stereo not drawn) [Closantel, reference compound], the “T906/KCC2 band intensity ratio” value ([1]; Hypotonic low Cl, 1 uM, single replicates) is reported as 0.202 and 0.217 and 0.223 and 0.249, the “T906/KCC2 band intensity ratio” value ([1]; Hypotonic low Cl, 3 uM, single replicates) is reported as 0.23 and 0.214 and 0.223 and 0.251 and the “T906/KCC2 band intensity ratio” value ([1]; Hypotonic low Cl, 10 uM, single replicates) is reported as 0.186 and 0.19 and 0.176 and 0.21. The “T906/KCC2 band intensity ratio” value ([1]; Isotonic control, 1 uM, single replicates (Fig 2 source data)) was 0.244 and 0.296 and 0.316 and 0.327, the “T906/KCC2 band intensity ratio” value ([1]; Isotonic control, 3 uM, single replicates) was 0.256 and 0.224 and 0.253 and 0.285 and the “T906/KCC2 band intensity ratio” value ([1]; Isotonic control, 10 uM, single replicates) was 0.18 and 0.181 and 0.194 and 0.22. The “Inhibitor vs SPAK FL (fluorescence polarization signal)” value (“Inhibitor vs SPAK FL” below) ([2]; Inhibitor 1e-5 μM) was 127.9 and 118 and 130, the “Inhibitor vs SPAK FL” value ([2]; Inhibitor 0.0001 μM) was 125.3 and 112 and 127 and the “Inhibitor vs SPAK FL” value ([2]; Inhibitor 0.001 μM) was 121.9 and 115.3 and 123. For the same compound, the “Inhibitor vs SPAK FL” value ([2]; Inhibitor 0.003 μM) was 123.1 and 116.4 and 120.4, the “Inhibitor vs SPAK FL” value ([2]; Inhibitor 0.01 μM) was 124.7 and 111.9 and 117.8 and the “Inhibitor vs SPAK FL” value ([2]; Inhibitor 0.03 μM) was 123.5 and 114.7 and 122.6. For the same compound, the “Inhibitor vs SPAK FL” value ([2]; Inhibitor 0.1 μM) was 126.5 and 109.5 and 116.8, the “Inhibitor vs SPAK FL” value ([2]; Inhibitor 0.3 μM) was 114.7 and 105.4 and 109.5 and the “Inhibitor vs SPAK FL” value ([2]; Inhibitor 1 μM) was 106.2 and 99.8 and 105.3. For the same compound, the “Inhibitor vs SPAK FL” value ([2]; Inhibitor 3 μM) was 104.5 and 98.4 and 100.5, the “Inhibitor vs SPAK FL” value ([2]; Inhibitor 10 μM) was 103.1 and 97.1 and 101.4 and the “Inhibitor vs SPAK FL” value ([2]; Inhibitor 100 μM) was 104.1 and 98.1 and 100.6. For the same compound, the “pTh46.50.55 / NCC” value (NCC pThr46/50/55/60) was 0.81 and 1.06 and 0.69 and 0.76, the “pTh203.207.212 / NKCC1” value (NKCC1 pThr203/207/212 [3]) was 0.43 and 0.52 and 0.41 and 0.37 and the “pSer373 / SPAK” value (SPAK phosphorylation) was 0.54 and 0.38 and 0.32 and 0.46. For the same compound, the “NKCC1 phosphorylation (pThr203/207/212) in naive brains” value (NKCC1 pThr203/207/212 [4]; 60 min after administration) was “neither drug had reduced”, the “pTh203.207.212 / NKCC1” value (NKCC1 pThr203/207/212 [4]; Fig S8a (brain), 50 mg/kg) was 0.63 and 0.62 and 0.71 and 0.68 and the “% CBF” value ([5]; Fig S10b/S10e, Pre) was 100%. The “% CBF” value ([5]; Fig S10b/S10e, Reperfusion 10 min) was 84% and 95% and 110%, the “% CBF” value ([5]; Fig S10b/S10e, Reperfusion 20 min) was 94% and 89% and 92% and the “% CBF” value ([5]; Fig S10b/S10e, Reperfusion 3 h) was 108% and 97% and 120%. The “% CBF” value ([5]; Fig S10b/S10e, Reperfusion 4 h) was 105% and 104% and 110%, the “% CBF” value ([5]; Fig S10b/S10e, Reperfusion 24 h) was 119% and 83% and 102% and the “% CBF” value ([5]; Fig S10b/S10e, mcao 10 min) was 113% and 80% and 120%. For the same compound, the “% CBF” value ([5]; Fig S10b/S10e, mcao 20min) was 111% and 75% and 88%, the “% CBF” value ([5]; Fig S10b/S10e, mcao 50 min) was 111% and 76% and 90% and the “% CBF” value ([5]; Fig S10c/S10f, Pre) was 100%. The “% CBF” value ([5]; Fig S10c/S10f, Reperfusion 10 min) was 68% and 56%, the “% CBF” value ([5]; Fig S10c/S10f, Reperfusion 20 min) was 65% and 75% and 58% and the “% CBF” value ([5]; Fig S10c/S10f, Reperfusion 3 h) was 88% and 84% and 92%. The “% CBF” value ([5]; Fig S10c/S10f, Reperfusion 4 h) was 101% and 92% and 90%, the “% CBF” value ([5]; Fig S10c/S10f, Reperfusion 24 h) was 120% and 101% and 104% and the “% CBF” value ([5]; Fig S10c/S10f, mcao 10 min) was 34% and 30% and 35%. The “% CBF” value ([5]; Fig S10c/S10f, mcao 20min) was 37% and 32% and 33%, the “% CBF” value ([5]; Fig S10c/S10f, mcao 50 min) was 34% and 33% and the “mortality of ischemic stroke mice” value (C57BL/6J mice; 25 mg/kg) was 100%. The “mortality in naive mice” value (C57BL/6J mice; 25 mg/kg i.p., 0-7 days, n = 3) was “No mortality”, the “time by which all ischemic stroke mice died” value (C57BL/6J mice; 25 mg/kg i.p., tMCAO) was at most 2 days and the “median survival of ischemic stroke mice” value (C57BL/6J mice; 25 mg/kg i.p., tMCAO, n = 6) was 1 days. For the same compound, the Days elapsed (C57BL/6J mice; MCAO mice) was 1 days and 2 days, the Days elapsed (C57BL/6J mice; mice without MCAO) was 7 days and the “toxicity in mice at higher doses” value (C57BL/6J mice; ~25 mg/kg) was “toxicity”. The “pSPAK/SPAK band intensity ratio” value (SPAK pSer373; Hypotonic low Cl, 1 uM) was 0.156 and 0.123 and 0.1673 and 0.133, the “pSPAK/SPAK band intensity ratio” value (SPAK pSer373; Hypotonic low Cl, 3 uM) was 0.102 and 0.11 and 0.1063 and 0.108 and the “pSPAK/SPAK band intensity ratio” value (SPAK pSer373; Hypotonic low Cl, 10 uM) was 0.032 and 0.058 and 0.043 and 0.041. The “pSPAK/SPAK band intensity ratio” value (SPAK pSer373; Isotonic control, 1 uM) was 0.118 and 0.131 and 0.126 and 0.122, the “pSPAK/SPAK band intensity ratio” value (SPAK pSer373; Isotonic control, 3 uM) was 0.056 and 0.061 and 0.054 and 0.063 and the “pSPAK/SPAK band intensity ratio” value (SPAK pSer373; Isotonic control, 10 uM) was 0.039 and 0.027 and 0.033 and 0.031.
